Assay results as given in patent US7208517B1, “Endothelin antagonists” (Abbott Labortories, priority 1994, dated 2007).

Legend:
[1] = target: T1, ETA Receptor (Rattus norvegicus, UniProt P26684); assay: [125I]ET-1 binding to membranes from MMQ cells (ETA receptor binding assay, Table 4); conditions: test compound at 1 μM; 0.1 nM [125I]ET-1, MMQ cell membranes, 4 hours at 25° C.; read-out: % Inhibition of ETA at 1 μM
T1 construct: endogenous in cells; host or cells: MMQ rat pituitary cells (membranes)
T1 sequence (P26684 21-426): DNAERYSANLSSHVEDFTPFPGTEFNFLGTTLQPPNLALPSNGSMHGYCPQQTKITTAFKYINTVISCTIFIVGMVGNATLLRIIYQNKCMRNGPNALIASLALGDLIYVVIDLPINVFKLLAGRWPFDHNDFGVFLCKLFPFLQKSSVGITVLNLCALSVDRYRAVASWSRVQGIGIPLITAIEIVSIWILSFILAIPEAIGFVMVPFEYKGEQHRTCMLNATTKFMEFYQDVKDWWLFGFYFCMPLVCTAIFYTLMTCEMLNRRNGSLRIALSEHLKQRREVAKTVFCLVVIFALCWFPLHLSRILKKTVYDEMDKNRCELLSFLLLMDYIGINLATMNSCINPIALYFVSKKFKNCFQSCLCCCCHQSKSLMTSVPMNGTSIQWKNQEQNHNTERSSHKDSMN

[2] = target: T2, human ETB receptor (Homo sapiens, UniProt P24530); assay: ETA/ETB selectivity: (125I)ET-3 competition binding, CHO cells transfected with human ETB receptor (hET-B); conditions: CHO cells transfected with human ETB receptor; 0.1 nM (125I)ET-3; read-out: hET-B IC50
T2 construct: expressed in transfected cells; host or cells: CHO cells, permanently transfected
T2 sequence (P24530 27-442): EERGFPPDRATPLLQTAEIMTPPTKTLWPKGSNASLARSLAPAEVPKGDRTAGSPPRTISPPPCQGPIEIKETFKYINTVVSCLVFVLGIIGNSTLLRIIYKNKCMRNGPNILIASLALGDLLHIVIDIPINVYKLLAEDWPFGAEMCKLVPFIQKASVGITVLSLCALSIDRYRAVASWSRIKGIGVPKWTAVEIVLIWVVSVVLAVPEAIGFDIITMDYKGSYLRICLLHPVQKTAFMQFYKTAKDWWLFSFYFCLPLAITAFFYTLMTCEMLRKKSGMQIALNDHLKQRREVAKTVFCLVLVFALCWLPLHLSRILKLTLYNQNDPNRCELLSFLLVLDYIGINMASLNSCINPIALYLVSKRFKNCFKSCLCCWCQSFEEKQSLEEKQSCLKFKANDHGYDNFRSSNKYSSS

| inhibition at 1 µM [1] | IC50 [2] | SMILES |
| --- | --- | --- |
| 97% | 52 µM | CCCCN(CCCC)C(=O)CN1CC(c2ccc3c(c2)OCO3)C(C(=O)O)C1CC(C)(C)CCC (stereo not drawn) [compound 503] |
| 97.1% | > 100 µM | CCCCN(CCCC)C(=O)CN1CC(c2ccc3c(c2)OCO3)C(C(=O)O)C1CCC1OCCO1 (stereo not drawn) [compound 504] |
| 95.8% | 68 µM | CCCCN(CCCC)C(=O)CN1CC(c2ccc3c(c2)OCO3)C(C(=O)O)C1CCC1CCCCO1 (stereo not drawn) [compound 505] |
| 99.7% | 61 µM | CCCCN(CCCC)C(=O)CN1CC(c2ccc3c(c2)OCO3)C(C(=O)O)C1CC(C)(C)C=C(C)C (stereo not drawn) [compound 506] |
| 99.3% | > 100 µM | CCCCN(CCCC)C(=O)CN1CC(c2ccc3c(c2)OCO3)C(C(=O)O)C1CC(C)(C)C1OCCO1 (stereo not drawn) [compound 507] |
| 100% | 23 µM | CCCCN(CCCC)C(=O)CN1CC(c2cc(OC)c3c(c2)OCO3)C(C(=O)O)C1CCC1OCCO1 (stereo not drawn) [compound 509] |
| 100% | 11 µM | CCCCN(CCCC)C(=O)CN1CC(c2ccc3c(c2)OCO3)C(C(=O)O)C1COc1ccccc1OC (stereo not drawn) [compound 510] |
| 98% | 14 µM | CCCC(CCC)N(C(=O)CN1CC(c2cc(OC)c3c(c2)OCO3)C(C(=O)O)C1CCC1OCCO1)c1ccc(F)c(C)c1 (stereo not drawn) [compound 513] |
| 99.1% | > 100 µM | CCCCN(CCCC)C(=O)CN1C[C@H](c2ccc3c(c2)CCO3)[C@@H](C(=O)O)[C@@H]1CC(C)(C)CCC [compound 515] |
| 99.7% | 37 µM | CCCCN(CCCC)C(=O)CN1CC(c2cc(OC)c3c(c2)OCO3)C(C(=O)O)C1CC(C)(C)C1OCCO1 (stereo not drawn) [compound 516] |
| 94.1% | 12 µM | CCCCN(CCCC)C(=O)CN1CC(c2ccc3c(c2)OCO3)C(C(=O)O)C1CCc1ccccc1OC (stereo not drawn) [compound 517] |
| 99% | 0.29 µM | CCCCN(CCCO)C(=O)CN1CC(c2ccc3c(c2)OCO3)C(C(=O)O)C1c1ccc(OC)cc1 (stereo not drawn) [compound 523] |
| 99.2% | 0.89 µM | CCCON(CCC)C(=O)CN1CC(c2ccc3c(c2)OCO3)C(C(=O)O)C1c1ccc(OC)cc1 (stereo not drawn) [compound 524] |
| 99.8% | 0.87 µM | CCCCN(C(=O)CN1CC(c2ccc3c(c2)OCO3)C(C(=O)O)C1c1ccc(OC)cc1)c1cccnc1 (stereo not drawn) [compound 531] |
| 97.2% | 1.9 µM | CCCCN(CCCC)C(=O)CN1C[C@H](c2ccc3c(c2)OCO3)[C@@H](C(=O)O)[C@@H]1CC(C)(C)CCC [compound 537] |
